Assay results as given in patent US20030152599A1, “Composition for external use” (Shiseido Co., Ltd., priority 1999, published 2003).

Legend:
desmoglein = assay: Evaluation for promotion of decomposition of desmoglein (keratinous layer sheet, anti-desmoglein immunoblot); assay type: biochemical; conditions: applied to both sides of keratinous layer sheet, 37° C., humidity 75%, one week; versus glycolic acid positive control
Description: To both sides of a sheet (1.5±0.2 mg) of the keratinous layer was applied 2-amino-1,3-propanediol, 2-amino-1,3-propanediol hydrochloride, or glycolic acid (5 μL for each side). Glycolic acid, which is one of AHA's, was used as a positive control. The sheet was sandwiched by stainless steel mesh sheets and allowed to stand at 37° C. with a humidity of 75% for one week. Subsequently, the sheet was transferred into a microtube, and an extracting liquid (100 μL) was added to the microtube. The mixture was maintained at 37° C. overnight to extract protein from the mixture. The extract was subjected to electrophoresis by use of […], and the gel was transferred to a PVDF membrane. An anti-desmoglein antibody and an alkaline-phosphatase-labeled anti-IgG sequentially reacted with the […], and the resultant gel was colored with alkaline phosphatase. The image of bands formed on the membrane was captured by an image-scanner, and was analyzed, to obtain the amount of desmoglein. The test was performed twice, and an average value of the amount was calculated. The average values of samples were compared.
The effect of 2-amino-2-methyl-1,3-propanediol and its hydrochloride was investigated in accordance with the same method.

keratinous layer [1] = assay: Turnover rate of the keratinous layer (decrease in fluorescence from the skin surface); assay type: in vivo, human (middle-aged subjects); conditions: 1% aqueous solution, inside of the forearm, three times per day for four days, measured on the fifth day
Description: (§1) The effect of 2-amino-1,3-propanediol and 2-amino-1,3-propanediol hydrochloride on mitigation of decrease in turnover rate of the keratinous layer induced by aging was investigated in four middle-aged subjects. The turnover rate, water content of the keratinous layer, and elasticity of the skin were evaluated. 1% Aqueous solutions of 2-amino-1,3-propanediol and its hydrochloride were employed as the representative compositions of the present invention. A 1% aqueous solution of glycolic acid—which is one type of AHA—was employed as a comparative composition, and water (purified water) was employed as a reference.
(§2) A 1% phosphor solution (1 mL) in ethanol was added to an outer syringe (length: about 2 cm) of a 10-mL disposable injector, to bring the solution into contact with the skin for one minute (four portions on the inside of the forearm). From the next day, each sample including water was applied to the phosphor-contacted portions. Application was performed three times per day and continued for four consecutive days.
On the fifth day after the test was initiated, intensity of fluorescence from the skin surface was measured by use of a fluorescence-detector designed for this particular use. Decrease in fluorescence was employed as an index of the turnover rate of the keratinous layer. The larger the decrease in fluorescence, the greater the turnover rate.
(§3) The turnover rate, water content of keratinous layer and elasticity of the skin in case of 2-amino-2-methyl-1,3-propanediol and its hydrochloride were also investigated.

keratinous layer [2] = assay: Water content of the keratinous layer (electrical conductivity, Skicon-200); assay type: in vivo, human (middle-aged subjects); conditions: 1% aqueous solution, inside of the forearm, three times per day for four days
Description: as §1, §2
Water content of the keratinous layer was measured by use of an apparatus for measuring electrical conductivity (Skicon-200, product of IBS). The conductivity was employed as an index of water content. Thus, the higher the water content, the higher the electrical conductivity.
as §3

skin = assay: Elasticity of the skin (Cutometer SEM474, Ur/Uf); assay type: in vivo, human (middle-aged subjects); conditions: 1% aqueous solution, inside of the forearm, three times per day for four days; Ur/Uf at 300 hPa
Description: as §1, §2
Elasticity of the skin was measured by use of Cutometer SEM474 (product of Courage+Khazaka). The elasticity was obtained from extension (Uf) and retraction (Ur) of the skin when a negative pressure of 300 hPa was repeatedly applied to the skin by use of a probe having a diameter of 2 mm. The ratio (Ur/Uf) was employed as an index of elasticity of the skin. The higher the ratio, the higher the elasticity of the skin.
as §3

SMILES | effect of promoting decomposition of desmoglein (desmoglein) | mitigation of decrease in turnover rate of the keratinous layer induced by aging (keratinous layer [1]) | water content of the keratinous layer (keratinous layer [2]) | elasticity of the skin (skin)
NC(CO)CO [2-amino-1,3-propanediol] | stronger effect of promoting decomposition of desmoglein than does glycolic acid | mitigate decrease in turnover rate induced by aging | improve water content of the keratinous layer | improve
CC(N)(CO)CO [2-amino-2-methyl-1,3-propanediol] | stronger effect of promoting decomposition of desmoglein than does glycolic acid | more strongly than does glycolic acid | more strongly than does glycolic acid | more strongly than does glycolic acid
CC(N)(CO)CO.Cl [2-amino-2-methyl-1,3-propanediol hydrochloride] | stronger effect of promoting decomposition of desmoglein than does glycolic acid | more strongly than does glycolic acid | more strongly than does glycolic acid | more strongly than does glycolic acid
Cl.NC(CO)CO [2-amino-1,3-propanediol hydrochloride] | stronger effect of promoting decomposition of desmoglein than does glycolic acid | mitigate decrease in turnover rate induced by aging | improve water content of the keratinous layer | improve
